Test results as given in publication PMC12102759 (Protein Science : A Publication of the Protein Society, 2025).

Test system: PABPC1 PABC
Assay type: binding, human
Conditions: DMS-BM library, bait PABPC1 PABC, row aa = residue at this position; for DMS-derived PSSM value, position K7: K = wild type
[1] = prey ATXN2, TLNPNAKEFNPRSF(averaged) over the two overlapping peptides, N = wild type
[2] = prey ATXN2, TLNPNAKEFNPRSF(averaged) over the two overlapping peptides, E = wild type
[3] = prey ATXN2, peptide KSTLNPNAKEFNPRSF, T = wild type
[4] = prey ATXN2, TLNPNAKEFNPRSF(averaged) over the two overlapping peptides, L = wild type
[5] = prey ATXN2, peptide KSTLNPNAKEFNPRSF, S = wild type
[6] = prey ATXN2, peptide TLNPNAKEFNPRSFSQ, N = wild type
[7] = prey ATXN2, peptide KSTLNPNAKEFNPRSF, F = wild type
[8] = prey ATXN2, TLNPNAKEFNPRSF(averaged) over the two overlapping peptides, F = wild type
[9] = prey ATXN2, peptide KSTLNPNAKEFNPRSF, N = wild type
[10] = prey ATXN2, peptide TLNPNAKEFNPRSFSQ
[11] = prey ATXN2, peptide KSTLNPNAKEFNPRSF, E = wild type
[12] = prey ATXN2, peptide KSTLNPNAKEFNPRSF, P = wild type

## TLNPNAKEFNPRSF(averaged) N10A (TLNPNAKEFAPRSF)
[1]
  DMS-derived PSSM value (averaged), position N10: 0.08276

## TLNPNAKEFNPRSF(averaged) N3A (TLAPNAKEFNPRSF)
[1]
  DMS-derived PSSM value (averaged), position N3: 0

## TLNPNAKEFNPRSFSQ T1N (NLNPNAKEFNPRSFSQ)
Prey ATXN2, peptide TLNPNAKEFNPRSFSQ, T = wild type
  DMS-derived PSSM value, position T1: 0.02571

## TLNPNAKEFNPRSFSQ S13D (TLNPNAKEFNPRDFSQ)
Prey ATXN2, peptide TLNPNAKEFNPRSFSQ, S = wild type
  DMS-derived PSSM value, position S13: 0.05929

## TLNPNAKEFNPRSF(averaged) E8H (TLNPNAKHFNPRSF)
[2]
  DMS-derived PSSM value (averaged), position E8: 0.2075

## KSTLNPNAKEFNPRSF T3W (KSWLNPNAKEFNPRSF)
[3]
  DMS-derived PSSM value, position T3: 0.01564

## TLNPNAKEFNPRSF(averaged) L2H (THNPNAKEFNPRSF)
[4]
  DMS-derived PSSM value (averaged), position L2: 0

## TLNPNAKEFNPRSF(averaged) E8T (TLNPNAKTFNPRSF)
[2]
  DMS-derived PSSM value (averaged), position E8: 0.1317

## KSTLNPNAKEFNPRSF S15P (KSTLNPNAKEFNPRPF)
[5]
  DMS-derived PSSM value, position S15: 0.04178

## TLNPNAKEFNPRSFSQ N3A (TLAPNAKEFNPRSFSQ)
[6]
  DMS-derived PSSM value, position N3: 0

## KSTLNPNAKEFNPRSF F11A (KSTLNPNAKEANPRSF)
[7]
  DMS-derived PSSM value, position F11: 0

## TLNPNAKEFNPRSF(averaged) N5L (TLNPLAKEFNPRSF)
[1]
  DMS-derived PSSM value (averaged), position N5: 0.05209

## TLNPNAKEFNPRSF(averaged) N5K (TLNPKAKEFNPRSF)
[1]
  DMS-derived PSSM value (averaged), position N5: 0.009917

## TLNPNAKEFNPRSF(averaged) F14A (TLNPNAKEFNPRSA)
[8]
  DMS-derived PSSM value (averaged), position F14: 0.04899

## KSTLNPNAKEFNPRSF N5T (KSTLTPNAKEFNPRSF)
[9]
  DMS-derived PSSM value, position N5: 0

## KSTLNPNAKEFNPRSF N5Q (KSTLQPNAKEFNPRSF)
[9]
  DMS-derived PSSM value, position N5: 0

## TLNPNAKEFNPRSF(averaged) F9R (TLNPNAKERNPRSF)
[8]
  DMS-derived PSSM value (averaged), position F9: 0

## KSTLNPNAKEFNPRSF T3I (KSILNPNAKEFNPRSF)
[3]
  DMS-derived PSSM value, position T3: 0.1667

## TLNPNAKEFNPRSFSQ K7G (TLNPNAGEFNPRSFSQ)
[10]
  DMS-derived PSSM value, position K7: 0.01102

## TLNPNAKEFNPRSF(averaged) L2W (TWNPNAKEFNPRSF)
[4]
  DMS-derived PSSM value (averaged), position L2: 0.07274

## TLNPNAKEFNPRSFSQ P11D (TLNPNAKEFNDRSFSQ)
Prey ATXN2, peptide TLNPNAKEFNPRSFSQ, P = wild type
  DMS-derived PSSM value, position P11: 0.005508

## TLNPNAKEFNPRSFSQ N10H (TLNPNAKEFHPRSFSQ)
[6]
  DMS-derived PSSM value, position N10: 0.0229

## TLNPNAKEFNPRSFSQ A6M (TLNPNMKEFNPRSFSQ)
Prey ATXN2, peptide TLNPNAKEFNPRSFSQ, A = wild type
  DMS-derived PSSM value, position A6: 0

## TLNPNAKEFNPRSFSQ K7Q (TLNPNAQEFNPRSFSQ)
[10]
  DMS-derived PSSM value, position K7: 0.008943

## KSTLNPNAKEFNPRSF S15E (KSTLNPNAKEFNPREF)
[5]
  DMS-derived PSSM value, position S15: 0.02092

## KSTLNPNAKEFNPRSF E10T (KSTLNPNAKTFNPRSF)
[11]
  DMS-derived PSSM value, position E10: 0.1693

## TLNPNAKEFNPRSFSQ N10F (TLNPNAKEFFPRSFSQ)
[6]
  DMS-derived PSSM value, position N10: 0.002727

## TLNPNAKEFNPRSFSQ F9I (TLNPNAKEINPRSFSQ)
Prey ATXN2, peptide TLNPNAKEFNPRSFSQ, F = wild type
  DMS-derived PSSM value, position F9: 0

## KSTLNPNAKEFNPRSF F11H (KSTLNPNAKEHNPRSF)
[7]
  DMS-derived PSSM value, position F11: 0

## TLNPNAKEFNPRSFSQ L2S (TSNPNAKEFNPRSFSQ)
Prey ATXN2, peptide TLNPNAKEFNPRSFSQ, L = wild type
  DMS-derived PSSM value, position L2: 0

## KSTLNPNAKEFNPRSF P13Y (KSTLNPNAKEFNYRSF)
[12]
  DMS-derived PSSM value, position P13: 0.004042

## KSTLNPNAKEFNPRSF P6S (KSTLNSNAKEFNPRSF)
[12]
  DMS-derived PSSM value, position P6: 0.01358

## TLNPNAKEFNPRSFSQ E8R (TLNPNAKRFNPRSFSQ)
Prey ATXN2, peptide TLNPNAKEFNPRSFSQ, E = wild type
  DMS-derived PSSM value, position E8: 0

## KSTLNPNAKEFNPRSF F16S (KSTLNPNAKEFNPRSS)
[7]
  DMS-derived PSSM value, position F16: 0.02635

## TLNPNAKEFNPRSF(averaged) A6R (TLNPNRKEFNPRSF)
Prey ATXN2, TLNPNAKEFNPRSF(averaged) over the two overlapping peptides, A = wild type
  DMS-derived PSSM value (averaged), position A6: 0

## KSTLNPNAKEFNPRSF E10H (KSTLNPNAKHFNPRSF)
[11]
  DMS-derived PSSM value, position E10: 0.3776

## TLNPNAKEFNPRSF(averaged) N5F (TLNPFAKEFNPRSF)
[1]
  DMS-derived PSSM value (averaged), position N5: 0.03844

## TLNPNAKEFNPRSFSQ K7F (TLNPNAFEFNPRSFSQ)
[10]
  DMS-derived PSSM value, position K7: 0.058

## KSTLNPNAKEFNPRSF P13A (KSTLNPNAKEFNARSF)
[12]
  DMS-derived PSSM value, position P13: 0.005231
